Assay results reported in ChEMBL document CHEMBL5625160, “Development of a next-generation endogenous OCT4 inducer and its anti-aging effect in vivo” (Eur J Med Chem, 2023).
The source made the active and inactive calls. The rule behind the calls is not given here.

Experiments:
[1] = Cytotoxicity against human HFF cells assessed as inhibition of cell viability measured after 48 hrs by MTT assay; type: toxicity, cell-based
[2] = test system: NCCIT; assay: Cytotoxicity against human NCCIT cells assessed as inhibition of cell viability measured after 48 hrs by MTT assay; type: functional, cell-based
[3] = test system: Fibroblast; assay: Reprogramming activity in human Fibroblast cells harbouring LTR7-GFP assessed as induction of iPSCs from somatic cells by measuring TRA-160 positive colonies at 5 uM measured after 7 days in presence of SOX2/KLF4/L-MYC/LIN28 (SKML); type: functional, cell-based; conditions: time 7.0 day
[4] = target: Homeobox protein NANOG (Homo sapiens) (UniProt Q9H9S0); assay: Induction of NANOG (unknown origin) expressed in human NCCIT reporter cells assessed as increase in luminescence signal measured after 24 hrs by luciferase reporter assay; type: cell-based
[5] = target: POU domain, class 5, transcription factor 1 (Homo sapiens) (UniProt Q01860); assay: Induction of OCT4 (unknown origin) expressed in HEK cells assessed as increase in luminescence signal measured after 24 hrs by luciferase reporter assay; type: cell-based
[6] = target: POU domain, class 5, transcription factor 1 (Homo sapiens) (UniProt Q01860); assay: Induction of OCT4 (unknown origin) expressed in human NCCIT reporter cells assessed as increase in luminescence signal measured after 24 hrs by luciferase reporter assay; type: cell-based
[7] = test system: Drosophila; assay: Anti-aging activity in Drosophila; type: functional, organism-based
[8] = target: Splicing factor 3B subunit 1 (Homo sapiens) (UniProt O75533); assay: Thermal stabilization of SF3B1 (unknown origin) assessed as increase in denaturation temperature by thermal shift assay (reference value: 58.5+/-2.05 degreeC)
[9] = Membrane permeability of the compound; type: ADME
[10] = target: Albumin (Homo sapiens, UniProt P02768); assay: Protein binding in serum albumin (unknown origin); type: ADME; conditions: read-out: PB (converted)
[11] = test system: Drosophila; assay: Anti-aging activity in Drosophila assessed as increase in life span at late adulthood at 20 uM measured upto 60 days; type: functional, organism-based; conditions: time <= 60.0 day
[12] = test system: Drosophila; assay: Anti-aging activity in Drosophila assessed as increase in life span at 20 uM measured upto 60 days relative to control; type: functional; conditions: 1440 h, time <= 60 day
[13] = test system: NCCIT; assay: Upregulation of SOX2 expression in human NCCIT cells at 5 to 10 uM measured after 2 days by qRT-PCR analysis; type: functional, cell-based; conditions: dose 5-10 µM, time 2.0 day
[14] = test system: Fibroblast; assay: Reduction in OCT4 expression in SF3B1 siRNA human Fibroblast cells harbouring LTR7-EGFP; type: functional, cell-based
[15] = test system: NCCIT; assay: Upregulation of OCT4 level in human NCCIT cells by fluorescence-activated cell sorter analysis; type: functional, cell-based
[16] = Upregulation of NANOG expression in human NCCIT cells assessed as fold increase at 5 to 10 uM measured after 2 days by qRT-PCR analysis; type: functional; conditions: dose 5-10 µM; time 2 day
[17] = test system: HFF; assay: Effect on NANOG expression in human HFF cells; type: functional, cell-based
[18] = target: POU domain, class 5, transcription factor 1 (Homo sapiens) (UniProt Q01860); assay: Induction of OCT4 in human HFF cells measured after 8 hrs; type: cell-based; conditions: filed as activator
[19] = test system: HFF; assay: Effect on OCT expression in human HFF cells; type: functional, cell-based
[20] = test system: Drosophila; assay: Anti-aging activity in Drosophila assessed as increase in life span at early adulthood at 20 uM measured upto 60 days relative to control; type: functional; conditions: 1440 h, time <= 60 day
[21] = test system: NCCIT; assay: Upregulation of REX1 expression in human NCCIT cells at 5 to 10 uM measured after 2 days by qRT-PCR analysis; type: functional, cell-based; conditions: dose 5-10 µM, time 2.0 day
[22] = test system: NCCIT; assay: Upregulation of E-cadherin expression in human NCCIT cells at 5 to 10 uM measured after 2 days by qRT-PCR analysis; type: functional, cell-based; conditions: dose 5-10 µM, time 2.0 day
[23] = test system: Fibroblast; assay: Upregulation of OCT4 level in human Fibroblast cells measured after 5 days by immunoblot analysis; type: functional, cell-based; conditions: dose 5-50 µM, time 5.0 day
[24] = test system: NCCIT; assay: Upregulation of STAT3 expression in human NCCIT cells at 5 to 10 uM measured after 2 days by qRT-PCR analysis; type: functional, cell-based; conditions: dose 5-10 µM, time 2.0 day
[25] = test system: Caenorhabditis elegans; assay: Anti-aging activity in wild type Caenorhabditis elegans N2 assessed as increase in survival rate measured after 48 hrs under oxidative stress; type: functional, organism-based
[26] = Upregulation of OCT4 expression in human NCCIT cells assessed as fold increase at 5 to 10 uM measured after 2 days by qRT-PCR analysis; type: functional; conditions: dose 5-10 µM; time 2 day
[27] = test system: HFF; assay: Effect on SOX2 expression in human HFF cells; type: functional, cell-based
[28] = test system: NCCIT; assay: Upregulation of OCT4 level in human NCCIT cells measured after 5 days by immunoblot analysis; type: functional, cell-based; conditions: dose 1-50 µM, time 5.0 day
[29] = test system: NCCIT; assay: Upregulation of E-cadherin level in human NCCIT cells by fluorescence-activated cell sorter analysis; type: functional, cell-based
[30] = test system: NCCIT; assay: Upregulation of SOX2 level in human NCCIT cells by fluorescence-activated cell sorter analysis; type: functional, cell-based
[31] = test system: Caenorhabditis elegans; assay: Anti-aging activity in wild type Caenorhabditis elegans N2 assessed as increase in life extension at 0.5 uM measured upto 40 days; type: functional, organism-based; conditions: time <= 40.0 day
[32] = test system: Caenorhabditis elegans; assay: Anti-aging activity in Caenorhabditis elegans […] assessed as induction of daf-16 nuclear translocation measured after 24 hrs; type: functional, organism-based
[33] = test system: NCCIT; assay: Upregulation of NANOG level in human NCCIT cells by fluorescence-activated cell sorter analysis; type: functional, cell-based
[34] = test system: Drosophila; assay: Anti-aging activity in Drosophila assessed as extension of life span; type: functional, organism-based

Sequence of Homeobox protein NANOG (Homo sapiens) (Q9H9S0 whole entry, the tested form may be a part): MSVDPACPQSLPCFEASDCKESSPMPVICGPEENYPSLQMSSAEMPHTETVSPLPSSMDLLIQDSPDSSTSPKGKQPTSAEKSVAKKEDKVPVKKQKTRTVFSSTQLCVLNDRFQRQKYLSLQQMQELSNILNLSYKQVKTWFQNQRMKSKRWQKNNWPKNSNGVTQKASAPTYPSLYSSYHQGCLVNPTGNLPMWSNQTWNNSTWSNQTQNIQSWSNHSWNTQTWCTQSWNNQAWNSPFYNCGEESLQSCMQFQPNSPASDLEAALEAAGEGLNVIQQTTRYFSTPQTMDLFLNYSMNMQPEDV
Sequence of POU domain, class 5, transcription factor 1 (Homo sapiens) (Q01860 whole entry, the tested form may be a part): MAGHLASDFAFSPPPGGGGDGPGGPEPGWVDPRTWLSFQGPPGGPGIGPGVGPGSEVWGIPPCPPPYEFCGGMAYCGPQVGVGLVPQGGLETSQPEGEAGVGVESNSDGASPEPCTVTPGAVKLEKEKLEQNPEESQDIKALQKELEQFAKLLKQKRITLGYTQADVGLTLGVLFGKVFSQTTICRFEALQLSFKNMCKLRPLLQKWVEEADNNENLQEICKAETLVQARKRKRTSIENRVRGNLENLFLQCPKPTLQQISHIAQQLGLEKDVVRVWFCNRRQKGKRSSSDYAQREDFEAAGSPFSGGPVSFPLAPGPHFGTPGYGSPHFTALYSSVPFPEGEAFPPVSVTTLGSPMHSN
Sequence of Splicing factor 3B subunit 1 (Homo sapiens) (O75533 whole entry): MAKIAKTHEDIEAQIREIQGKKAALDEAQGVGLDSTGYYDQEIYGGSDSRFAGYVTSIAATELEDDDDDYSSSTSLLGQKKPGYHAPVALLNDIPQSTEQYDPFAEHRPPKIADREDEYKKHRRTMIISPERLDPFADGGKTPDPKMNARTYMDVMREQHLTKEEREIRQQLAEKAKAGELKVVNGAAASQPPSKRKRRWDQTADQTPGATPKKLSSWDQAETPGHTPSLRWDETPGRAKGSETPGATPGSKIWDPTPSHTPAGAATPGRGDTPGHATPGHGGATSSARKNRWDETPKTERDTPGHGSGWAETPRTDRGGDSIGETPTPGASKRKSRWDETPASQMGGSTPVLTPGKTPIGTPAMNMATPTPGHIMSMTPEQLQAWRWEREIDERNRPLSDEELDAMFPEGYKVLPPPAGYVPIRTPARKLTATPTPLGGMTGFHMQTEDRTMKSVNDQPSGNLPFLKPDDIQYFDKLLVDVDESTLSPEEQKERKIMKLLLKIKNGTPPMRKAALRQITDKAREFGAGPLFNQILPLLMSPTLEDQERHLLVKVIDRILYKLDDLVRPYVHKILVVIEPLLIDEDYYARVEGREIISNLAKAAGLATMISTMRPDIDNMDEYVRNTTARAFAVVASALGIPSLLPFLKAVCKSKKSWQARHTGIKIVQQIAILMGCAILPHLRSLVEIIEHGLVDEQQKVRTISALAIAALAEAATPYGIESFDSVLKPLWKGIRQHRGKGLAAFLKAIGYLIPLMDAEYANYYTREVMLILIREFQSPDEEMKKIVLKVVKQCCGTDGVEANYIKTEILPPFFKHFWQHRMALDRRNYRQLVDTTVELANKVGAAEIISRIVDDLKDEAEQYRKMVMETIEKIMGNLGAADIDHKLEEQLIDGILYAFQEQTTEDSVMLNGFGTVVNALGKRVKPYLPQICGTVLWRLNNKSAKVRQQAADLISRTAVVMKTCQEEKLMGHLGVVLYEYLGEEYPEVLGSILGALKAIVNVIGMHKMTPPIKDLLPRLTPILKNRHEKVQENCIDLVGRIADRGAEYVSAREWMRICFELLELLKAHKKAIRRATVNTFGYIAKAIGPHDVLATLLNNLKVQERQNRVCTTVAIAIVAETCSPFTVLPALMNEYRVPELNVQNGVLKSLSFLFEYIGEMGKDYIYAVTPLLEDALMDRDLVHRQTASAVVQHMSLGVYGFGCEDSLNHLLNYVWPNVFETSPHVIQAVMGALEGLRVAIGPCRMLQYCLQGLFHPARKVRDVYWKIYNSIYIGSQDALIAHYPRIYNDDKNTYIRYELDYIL
Sequence of Albumin (P02768 whole entry): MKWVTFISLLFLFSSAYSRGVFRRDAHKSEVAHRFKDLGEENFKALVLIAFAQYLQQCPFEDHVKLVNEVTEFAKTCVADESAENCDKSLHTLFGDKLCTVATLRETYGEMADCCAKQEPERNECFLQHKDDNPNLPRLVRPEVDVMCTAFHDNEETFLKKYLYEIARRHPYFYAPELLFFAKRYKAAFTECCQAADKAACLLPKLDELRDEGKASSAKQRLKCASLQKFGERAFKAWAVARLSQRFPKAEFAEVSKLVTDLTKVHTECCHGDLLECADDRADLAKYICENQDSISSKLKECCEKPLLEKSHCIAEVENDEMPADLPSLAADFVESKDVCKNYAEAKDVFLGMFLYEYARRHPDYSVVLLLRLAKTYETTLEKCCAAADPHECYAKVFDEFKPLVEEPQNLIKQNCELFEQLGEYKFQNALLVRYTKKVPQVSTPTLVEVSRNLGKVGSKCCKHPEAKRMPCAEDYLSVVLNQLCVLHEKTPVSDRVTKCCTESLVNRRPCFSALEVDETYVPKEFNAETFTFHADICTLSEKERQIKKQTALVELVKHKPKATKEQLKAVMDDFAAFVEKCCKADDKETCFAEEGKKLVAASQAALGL

## Cc1cccc(Nc2nc(C(C)(C)C)cs2)c1
[1]
  IC50 at 48 h: 11.6 µM
[2]
  IC50: 5.96 µM

## CCOC(=O)c1csc(Nc2ccc(C)cc2Br)n1
[3]
  Activity: Active
[1]
  IC50 at 48 h: > 20 µM
[4]
  Activity: inactive
[5]; filed as activator
  Activity: Active
[6]
  Activity: inactive
[2]
  IC50: > 20 µM

## CCOC(=O)c1csc(Nc2ccc(Cl)cc2)n1
[3]
  Activity: Active
[7]
  Activity: inactive
[8]
  T: 64.7 °C
[4]
  Activity: inactive
[5]
  Activity: inactive
[9]
  permeability: 70%
[6]
  Activity: inactive
[10]
  fraction unbound: 0.1

## CC(C)(C)c1csc(Nc2ccc(Cl)cc2)n1
[3]
  Activity: inactive
[1]
  IC50 at 48 h: > 20 µM
[2]
  IC50: 19.7 µM

## CCOC(=O)c1csc(Nc2ccc(Br)cc2C)n1
[1]
  IC50 at 48 h: > 20 µM
[4]
  Activity: inactive
[5]; filed as activator
  Activity: Active
[6]
  Activity: inactive
[2]
  IC50: > 20 µM

## CCOC(=O)c1csc(Nc2ccc(Cl)cc2OC)n1
[1]
  IC50 at 48 h: > 20 µM
[4]
  Activity: inactive
[5]
  Activity: inactive
[6]
  Activity: inactive
[2]
  IC50: > 20 µM

## CC(C)(C)c1csc(Nc2ccccc2)n1
[1]
  IC50 at 48 h: > 20 µM
[2]
  IC50: > 20 µM

## CCOC(=O)c1csc(Nc2ccc(C#N)cc2)n1
[1]
  IC50 at 48 h: > 20 µM
[4]
  Activity: inactive
[5]
  Activity: inactive
[6]
  Activity: inactive
[2]
  IC50: > 20 µM

## Cc1ccc(-c2cn3cc(C)ccc3n2)cc1
[3]
  Activity: Active

## Clc1ccc(Nc2nc(-c3ccc4ccccc4c3)cs2)cc1
[1]
  IC50 at 48 h: > 20 µM
[2]
  IC50: > 20 µM

## CCOC(=O)c1csc(Nc2ccc(F)cc2F)n1
[1]
  IC50 at 48 h: > 20 µM
[4]
  Activity: inactive
[5]; filed as activator
  Activity: Active
[6]
  Activity: inactive
[2]
  IC50: > 20 µM

## Cc1cccc(Nc2nc(C(C)(C)C)cs2)c1C
[11]
  ILS: inactive
[12]
  ILS at 20 µM: 5%
[13]
  Activity: Active
[14]
  Activity: Active
[15]
  Activity: Active
[16]
  fold change (FC): 30
[17]
  Activity: Active
[3]
  Activity: Active
[18]
  Activity: Active
[1]
  IC50 at 48 h: > 20 µM
[19]
  Activity: Active
[20]
  ILS at 20 µM: 10%
[21]
  Activity: Active
[22]
  Activity: Active
[23]
  Activity: Dose-Dependent Effect
[24]
  Activity: Active
[8]
  T: 64.9 °C
[4]; filed as activator
  Activity: Active
[25]
  Activity: Active
[5]; filed as activator
  Activity: Active
[26]
  fold change (FC): 3
[27]
  Activity: Active
[28]
  Activity: Dose-Dependent Effect
[29]
  Activity: Active
[30]
  Activity: Active
[31]
  Activity: Active
[6]; filed as activator
  Activity: Active
[32]
  Activity: Active
[33]
  Activity: Active
[2]
  IC50: 10.9 µM

## Clc1ccc(Nc2nc(-c3ccccc3)cs2)cc1
[1]
  IC50 at 48 h: > 20 µM
[2]
  IC50: > 20 µM

## CCOC(=O)c1csc(Nc2cc(C(F)(F)F)cc(C(F)(F)F)c2)n1
[1]
  IC50 at 48 h: > 20 µM
[4]
  Activity: inactive
[5]
  Activity: inactive
[6]
  Activity: inactive
[2]
  IC50: > 20 µM

## Cc1ccc(Nc2nc(C(C)(C)C)cs2)c(C)c1
[1]
  IC50 at 48 h: > 20 µM
[2]
  IC50: > 20 µM

## CCOC(=O)c1csc(Nc2cc(F)ccc2F)n1
[1]
  IC50 at 48 h: > 20 µM
[4]
  Activity: inactive
[5]; filed as activator
  Activity: Active
[6]
  Activity: inactive
[2]
  IC50: > 20 µM

## Cc1ccc(Nc2nc(C(C)(C)C)cs2)cc1
[1]
  IC50 at 48 h: > 20 µM
[2]
  IC50: > 20 µM

## Cc1ccccc1Nc1nc(C(C)(C)C)cs1
[1]
  IC50 at 48 h: > 20 µM
[2]
  IC50: 9.38 µM

## CCOC(=O)c1csc(Nc2ccc([N+](=O)[O-])cc2)n1
[1]
  IC50 at 48 h: > 20 µM
[4]
  Activity: inactive
[5]; filed as activator
  Activity: Active
[6]
  Activity: inactive
[2]
  IC50: > 20 µM

## CCOC(=O)c1csc(Nc2ccc(O)cc2)n1
[1]
  IC50 at 48 h: > 20 µM
[4]
  Activity: inactive
[5]
  Activity: inactive
[6]
  Activity: inactive
[2]
  IC50: > 20 µM

## CCOC(=O)c1csc(Nc2ccc(C)cc2)n1
[1]
  IC50 at 48 h: > 20 µM
[4]
  Activity: inactive
[5]
  Activity: inactive
[6]
  Activity: inactive
[2]
  IC50: > 20 µM

## C=C[C@@]1(C)CC(=O)[C@]2(O)[C@@]3(C)[C@@H](O)CCC(C)(C)[C@@H]3[C@H](O)[C@H](OC(C)=O)[C@@]2(C)O1
[34]
  Activity: inactive

## CCOC(=O)c1csc(Nc2cc(OC)ccc2OC)n1
[1]
  IC50 at 48 h: > 20 µM
[4]
  Activity: inactive
[5]
  Activity: inactive
[6]
  Activity: inactive
[2]
  IC50: > 20 µM

## CCOC(=O)c1csc(Nc2ccc(OC)cc2OC)n1
[1]
  IC50 at 48 h: > 20 µM
[4]
  Activity: inactive
[5]
  Activity: inactive
[6]
  Activity: inactive
[2]
  IC50: > 20 µM

## CCOC(=O)c1csc(Nc2ccc(C(=O)O)cc2)n1
[3]
  Activity: Active
[1]
  IC50 at 48 h: > 20 µM
[4]; filed as activator
  Activity: Active
[5]; filed as activator
  Activity: Active
[6]; filed as activator
  Activity: Active
[2]
  IC50: > 20 µM

## CCOC(=O)c1csc(Nc2ccc(OC)cc2)n1
[1]
  IC50 at 48 h: > 20 µM
[4]
  Activity: inactive
[5]
  Activity: inactive
[6]
  Activity: inactive
[2]
  IC50: > 20 µM
